Reference: US6517812B1, “Inhibition of psychostimulant-induced and nicotine-induced craving” (The General Hospital Corporation, priority 1997, dated 2003)

What was measured:
D1 receptor [1] = target: T1, D1 receptor (Rattus norvegicus, UniProt P18901); assay: SCH-23390 pretreatment before cocaine, CBV-weighted fMRI in rat; format: in vivo; conditions: post 0.5 mg/kg cocaine
T1 construct: Male Harlan Sprague-Dawley rats (225-300 gm) were anesthetized briefly; from tissue; host or cells: brain of living male Sprague-Dawley rats (in vivo)
T1 sequence (P18901 whole entry): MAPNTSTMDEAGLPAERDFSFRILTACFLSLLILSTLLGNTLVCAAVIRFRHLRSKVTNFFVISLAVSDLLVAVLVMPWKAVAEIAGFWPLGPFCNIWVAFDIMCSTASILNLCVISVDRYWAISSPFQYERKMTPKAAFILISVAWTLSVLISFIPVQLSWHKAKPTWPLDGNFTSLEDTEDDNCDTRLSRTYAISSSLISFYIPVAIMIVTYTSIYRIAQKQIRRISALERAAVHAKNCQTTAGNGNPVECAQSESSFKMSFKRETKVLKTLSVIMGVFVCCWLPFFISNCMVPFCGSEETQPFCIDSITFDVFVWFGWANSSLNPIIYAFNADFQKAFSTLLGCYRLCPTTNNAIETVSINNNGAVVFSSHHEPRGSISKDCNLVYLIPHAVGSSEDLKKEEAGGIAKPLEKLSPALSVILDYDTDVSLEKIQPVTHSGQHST

D1 receptor [2] = target: T1, D1 receptor; assay: SCH-23390 pretreatment before cocaine, LDF of frontal cortex CBF in rat; format: in vivo; conditions: 0.5 mg/kg cocaine after SCH-23390 pretreatment, n=3, p<0.04
Description: All procedures were carried out in accordance with NIH guidelines. Male Harlan Sprague-Dawley rats (225-300 gm) were anesthetized briefly with 1.5% halothane in oxygen for insertion of left femoral arterial and venous cannulae and placement of tracheostomy for mechanical ventilation (using a 16 gauge intravenous catheter, Inste-W, Becton Dickinson, Sandy, Utah). All wounds were infiltrated with 1% lidocaine before incision. Following surgery, the inspired halothane concentration was reduced to 0.7% and rats were paralyzed with 2 mg/kg intravenous pancuronium, followed by a continuous intravenous infusion of pancuronium at 2 mg/kg/hr. Pancuronium was dissolved in normal saline administered at 5 ml/kg/hr. […] Arterial blood samples (150 μl) withdrawn from cannula were analyzed for arterial partial pressures of oxygen, carbon dioxide, and pH (Ciba-Coming Model 1304) before administration of drugs, and at the end of each experiment before sacrifice, to ensure animal stability. Arterial blood pressure and rectal temperature were monitored throughout the experiment. […]
Regional cortical blood flow was determined by LDF (Perimed, PF2B, Stockholm, Sweden) as described previously (Ayata, et al., 1996, J. Cereb. Blood Flow Metab., 16:539-541). […] All data were collected, stored, and analyzed using MacLab/8 data acquisition and analysis system (ADInstruments, Mountain View, Calif.). […]

rat frontal cortex = assay: Laser Doppler-flowmetry (LDF) of regional cortical blood flow (CBF) in rat; format: in vivo; conditions: rat, bolus infusion 1, 5, 10 and 20 mg/kg (data not shown)
Description: (§1) All procedures were carried out in accordance with NIH guidelines. Male Harlan Sprague-Dawley rats (225-300 gm) were anesthetized briefly with 1.5% halothane in oxygen for insertion of left femoral arterial and venous cannulae and placement of tracheostomy for mechanical ventilation (using a 16 gauge intravenous catheter, Inste-W, Becton Dickinson, Sandy, Utah). All wounds were infiltrated with 1% lidocaine before incision. Following surgery, the inspired halothane concentration was reduced to 0.7% and rats were paralyzed with 2 mg/kg intravenous pancuronium, followed by a continuous intravenous infusion of pancuronium at 2 mg/kg/hr. Pancuronium was dissolved in normal saline administered at 5 ml/kg/hr. Rats were mechanically ventilated (in a small animal volume controlled ventilator, Harvard Apparatus, Inc., South Natick, Mass.) with a 80/20 air/oxygen mixture, an inspiratory to expiratory ratio of 1:1, and an initial tidal volume of 3.0 ml at a rate of 40 breaths per minute. Ventilation parameters were adjusted to maintain normal arterial blood gases (pH=7.40±0.01, PaCO2=40±2, PaO2=145±10). Arterial blood samples (150 μl) withdrawn from cannula were analyzed for arterial partial pressures of oxygen, carbon dioxide, and pH (Ciba-Coming Model 1304) before administration of drugs, and at the end of each experiment before sacrifice, to ensure animal stability. Arterial blood pressure and rectal temperature were monitored throughout the experiment. […] Rats torsos were wrapped in two heating blankets (Gaymar, Orchid Park, N.Y.) circulating warm water to maintain core temperature at 37-38° C. To minimize MRI motion artifact, rats were placed into a custom plastic cradle attached to a head frame machined from delrin plastic (David Kopf Instruments, Fremont, Calif.); heads were fixed with plastic screws inserted into the ear canals and a bar inserted under the front incisors. Rat heads were shaved and covered with gel toothpaste to reduce magnetic susceptibility artifacts arising from air-tissue interfaces; ear canals and oropharynx were also filled with toothpaste. A surface coil was secured over the dorsal surface of the head before positioning the animal in the magnet center. Cocaine (RBI, Natick, Mass.), SCH-23390 (RBI, Natick, Mass.), and cocaine methiodide (NIDA, Bethesda, Md.) were dissolved in normal saline and administered in a 0.5 ml volume at a rate of 1 ml/min via the femoral vein. Sixty minutes passed before injections of cocaine were repeated.
Regional cortical blood flow was determined by LDF (Perimed, PF2B, Stockholm, Sweden) as described previously (Ayata, et al., 1996, J. Cereb. Blood Flow Metab., 16:539-541). Rats (n=8) were prepared exactly as for dynamic MR studies and positioned in a standard stereotaxic head frame. With the scalp incised and retracted, two holes (1-2 mm in diameter) were drilled through the skull 2 mm lateral to midline; one hole was 2 mm anterior to bregma overlying frontal cortex, and the other was 8 mm posterior to bregma to examine occipital cortex. The flow probe was positioned directly upon exposed dura mater in a puddle of mineral oil. […] All data were collected, stored, and analyzed using MacLab/8 data acquisition and analysis system (ADInstruments, Mountain View, Calif.). Arterial pressure was continuously monitored and the data stored; heart rate was calculated from arterial pressure pulses by the data acquisition software. […]

[3] = tested on: Male Harlan Sprague-Dawley rats; assay: Arterial blood pressure and heart rate monitoring in rat; conditions: bolus infusion 1, 5, 10 and 20 mg/kg
Description: as §1, with “To minimize MRI motion artifact, rats were placed into a custom plastic cradle attached to a head frame machined from delrin plastic (David Kopf Instruments, Fremont, Calif.); heads were fixed with plastic screws inserted into the ear canals and a bar inserted under the front incisors. Rat heads were shaved and covered with gel toothpaste to reduce magnetic susceptibility artifacts arising from air-tissue interfaces; ear canals and oropharynx were also filled with toothpaste. A surface coil was secured over the dorsal surface of the head before positioning the animal in the magnet center. Cocaine (RBI, Natick, Mass.), SCH-23390 (RBI, Natick, Mass.), and cocaine methiodide (NIDA, Bethesda, Md.) were dissolved in normal saline and administered in a 0.5 ml volume at a rate of 1 ml/min via the femoral vein. Sixty minutes passed before injections of cocaine were repeated.” left out
Regional cortical blood flow was determined by LDF (Perimed, PF2B, Stockholm, Sweden) as described previously (Ayata, et al., 1996, J. Cereb. Blood Flow Metab., 16:539-541). […] All data were collected, stored, and analyzed using MacLab/8 data acquisition and analysis system (ADInstruments, Mountain View, Calif.). Arterial pressure was continuously monitored and the data stored; heart rate was calculated from arterial pressure pulses by the data acquisition software. […]

[4] = literature (Schindler 1992, Hemby 1994); cited from earlier work

Compound	drop in CBV at nadir, frontal neocortex (D1 receptor [1]) [%]	drop in CBV at nadir, striatum (D1 receptor [1]) [%]	change in CBF relative to pre-drug baseline (D1 receptor [2]) [%]	change in frontal cortex CBF (rat frontal cortex)	blood pressure and heart rate [3]	blood brain barrier passage [4]
CN1CCc2cc(Cl)c(O)cc2[C@@H](c2ccccc2)C1 [SCH-23390]	5	8	−18±3			
COC(=O)[C@H]1[C@@H](OC(=O)c2ccccc2)C[C@@H]2CC[C@H]1[N+]2(C)C.[I-] [cocaine methiodide]				did not produce any significant change	transient decrease	does not cross the blood brain barrier
